Data as given in patent US11117892B2, “Pyrrolo-pyridine derivative compound, method for preparing same, and pharmaceutical composition containing same as active ingredient for prevention or treatment of protein kinase-related diseases” (DAEGU-GYEONGBUK MEDICAL INNOVATION FOUNDATION, priority 2017, dated 2021).

Legend:
Assay in all cases: scanMAX Kinase assay panel
Type in all cases: binding
Settings in all cases: read-out: % control
p38-alpha = p38-alpha (Homo sapiens (Human), UniProt Q16539)
Summary of the method: (§1)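 % control read-out: DMSO vehicle = 100%, positive control = 0%, test compound scaled between these two. Selectivity profiling was done on the scanMAX kinase panel.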

TXK = TXK (Homo sapiens (Human), UniProt P42681)
Summary of the method: as §1

JNK2 = JNK2 (Homo sapiens (Human), UniProt P45984)
Summary of the method: as §1

PIM3 = PIM3 (Homo sapiens (Human), UniProt Q86V86)
Summary of the method: as §1

PRKD2 = PRKD2 (Homo sapiens (Human), UniProt Q9BZL6)
Summary of the method: as §1

GRK3 = GRK3 (Homo sapiens (Human), UniProt P35626)
Summary of the method: as §1

PCTK2 = PCTK2 (Homo sapiens (Human), UniProt Q00537)
Summary of the method: as §1

ADCK4 = ADCK4 (Homo sapiens (Human), UniProt Q96D53)
Summary of the method: as §1

FLT3(K663Q) = FLT3(K663Q) (Homo sapiens (Human), UniProt P36888, K663Q)
Summary of the method: as §1

ERBB4 = ERBB4 (Homo sapiens (Human), UniProt Q15303)
Summary of the method: as §1

AKT2 = AKT2 (Homo sapiens (Human), UniProt P31751)
Summary of the method: as §1

CSF1R-autoinhibited = CSF1R-autoinhibited (Homo sapiens (Human), UniProt P07333)
Summary of the method: as §1

EIF2AK1 = EIF2AK1 (Homo sapiens (Human), UniProt Q9BQI3)
Summary of the method: as §1

AKT3 = AKT3 (Homo sapiens (Human), UniProt Q9Y243)
Summary of the method: as §1

PIM2 = PIM2 (Homo sapiens (Human), UniProt Q9P1W9)
Summary of the method: as §1

BRSK2 = BRSK2 (Homo sapiens (Human), UniProt Q8IWQ3)
Summary of the method: as §1

TAOK1 = TAOK1 (Homo sapiens (Human), UniProt Q7L7X3)
Summary of the method: as §1

CSNK2A1 = CSNK2A1 (Homo sapiens (Human), UniProt P68400)
Summary of the method: as §1

BRK = BRK (Homo sapiens (Human), UniProt Q13882)
Summary of the method: as §1

WEE2 = WEE2 (Homo sapiens (Human), UniProt P0C1S8)
Summary of the method: as §1

EPHB6 = EPHB6 (Homo sapiens (Human), UniProt O15197)
Summary of the method: as §1

FLT3(D835Y) = FLT3(D835Y) (Homo sapiens (Human), UniProt P36888, D835Y)
Summary of the method: as §1

LTK = LTK (Homo sapiens (Human), UniProt P29376)
Summary of the method: as §1

ACVR2B = ACVR2B (Homo sapiens (Human), UniProt Q13705)
Summary of the method: as §1

[1] = target: JAK1(JH1domain-catalytic) (Homo sapiens (Human), UniProt P23458)
Summary of the method: as §1

NIM1 = NIM1 (Homo sapiens (Human), UniProt Q8IY84)
Summary of the method: as §1

TSSK1B = TSSK1B (Homo sapiens (Human), UniProt Q9BXA7)
Summary of the method: as §1

KIT(L576P) = KIT(L576P) (Homo sapiens (Human), UniProt P10721, L576P)
Summary of the method: as §1

TBK1 = TBK1 (Homo sapiens (Human), UniProt Q9UHD2)
Summary of the method: as §1

LZK = LZK (Homo sapiens (Human), UniProt O43283)
Summary of the method: as §1

p38-delta = p38-delta (Homo sapiens (Human), UniProt O15264)
Summary of the method: as §1

ERBB2 = ERBB2 (Homo sapiens (Human), UniProt P04626)
Summary of the method: as §1

FGFR2 = FGFR2 (Homo sapiens (Human), UniProt P21802)
Summary of the method: as §1

PRKCH = PRKCH (Homo sapiens (Human), UniProt P24723)
Summary of the method: as §1

[2] = target: RPS6KA5(Kin.Dom.1-N-terminal) (Homo sapiens (Human), UniProt O75582)
Summary of the method: as §1

FAK = FAK (Homo sapiens (Human), UniProt Q05397)
Summary of the method: as §1

RET = RET (Homo sapiens (Human), UniProt P07949)
Summary of the method: as §1

PKAC-alpha = PKAC-alpha (Homo sapiens (Human), UniProt P17612)
Summary of the method: as §1

MST1 = MST1 (Homo sapiens (Human), UniProt Q13043)
Summary of the method: as §1

Sequence of CSF1R-autoinhibited (P07333 539-972 limits assumed): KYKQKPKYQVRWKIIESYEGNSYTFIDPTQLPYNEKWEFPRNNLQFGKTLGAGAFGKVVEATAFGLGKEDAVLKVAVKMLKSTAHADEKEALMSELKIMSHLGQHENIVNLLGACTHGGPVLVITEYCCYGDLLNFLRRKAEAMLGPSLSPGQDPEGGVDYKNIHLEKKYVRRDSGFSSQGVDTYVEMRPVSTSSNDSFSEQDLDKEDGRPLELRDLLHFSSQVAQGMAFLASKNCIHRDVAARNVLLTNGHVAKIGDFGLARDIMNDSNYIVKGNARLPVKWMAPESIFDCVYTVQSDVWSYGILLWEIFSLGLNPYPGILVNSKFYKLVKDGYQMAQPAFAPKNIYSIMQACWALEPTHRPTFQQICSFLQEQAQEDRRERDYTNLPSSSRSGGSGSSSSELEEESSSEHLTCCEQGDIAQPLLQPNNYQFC
Sequence of CSNK2A1 (P68400 whole entry): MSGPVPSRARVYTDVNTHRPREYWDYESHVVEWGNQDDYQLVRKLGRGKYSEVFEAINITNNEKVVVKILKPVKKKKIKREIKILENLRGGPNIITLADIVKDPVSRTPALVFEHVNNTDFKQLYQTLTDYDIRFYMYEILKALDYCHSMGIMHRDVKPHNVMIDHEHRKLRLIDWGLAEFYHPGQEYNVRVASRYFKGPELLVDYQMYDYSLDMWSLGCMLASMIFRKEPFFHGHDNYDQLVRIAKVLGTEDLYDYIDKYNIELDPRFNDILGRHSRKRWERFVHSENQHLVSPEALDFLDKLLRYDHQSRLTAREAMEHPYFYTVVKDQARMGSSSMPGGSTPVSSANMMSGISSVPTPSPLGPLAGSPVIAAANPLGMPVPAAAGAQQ
Sequence of BRK (Q13882 whole entry): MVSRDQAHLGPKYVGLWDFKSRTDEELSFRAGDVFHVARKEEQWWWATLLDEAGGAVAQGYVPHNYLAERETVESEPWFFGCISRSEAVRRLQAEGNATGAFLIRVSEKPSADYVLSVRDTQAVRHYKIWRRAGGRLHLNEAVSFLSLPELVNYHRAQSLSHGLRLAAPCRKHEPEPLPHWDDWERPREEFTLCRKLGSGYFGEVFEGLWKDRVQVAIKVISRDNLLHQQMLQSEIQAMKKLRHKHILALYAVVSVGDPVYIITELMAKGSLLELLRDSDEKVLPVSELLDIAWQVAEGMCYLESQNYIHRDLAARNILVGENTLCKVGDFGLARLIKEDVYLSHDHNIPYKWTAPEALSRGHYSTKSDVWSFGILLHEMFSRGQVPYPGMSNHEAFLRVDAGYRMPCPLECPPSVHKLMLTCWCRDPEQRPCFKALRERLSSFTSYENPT
Sequence of p38-delta (O15264 whole entry): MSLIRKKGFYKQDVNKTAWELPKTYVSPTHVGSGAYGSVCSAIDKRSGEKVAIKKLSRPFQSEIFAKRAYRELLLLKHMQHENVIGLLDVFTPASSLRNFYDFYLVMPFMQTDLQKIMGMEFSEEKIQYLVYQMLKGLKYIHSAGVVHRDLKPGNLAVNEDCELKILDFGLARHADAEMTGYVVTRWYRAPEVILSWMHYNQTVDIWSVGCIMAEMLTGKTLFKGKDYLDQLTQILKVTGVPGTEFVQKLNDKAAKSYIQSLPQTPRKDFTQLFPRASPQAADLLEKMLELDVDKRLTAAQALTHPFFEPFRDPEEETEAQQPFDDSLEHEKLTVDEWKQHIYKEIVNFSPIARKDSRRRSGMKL
Sequence of EIF2AK1 (Q9BQI3 whole entry): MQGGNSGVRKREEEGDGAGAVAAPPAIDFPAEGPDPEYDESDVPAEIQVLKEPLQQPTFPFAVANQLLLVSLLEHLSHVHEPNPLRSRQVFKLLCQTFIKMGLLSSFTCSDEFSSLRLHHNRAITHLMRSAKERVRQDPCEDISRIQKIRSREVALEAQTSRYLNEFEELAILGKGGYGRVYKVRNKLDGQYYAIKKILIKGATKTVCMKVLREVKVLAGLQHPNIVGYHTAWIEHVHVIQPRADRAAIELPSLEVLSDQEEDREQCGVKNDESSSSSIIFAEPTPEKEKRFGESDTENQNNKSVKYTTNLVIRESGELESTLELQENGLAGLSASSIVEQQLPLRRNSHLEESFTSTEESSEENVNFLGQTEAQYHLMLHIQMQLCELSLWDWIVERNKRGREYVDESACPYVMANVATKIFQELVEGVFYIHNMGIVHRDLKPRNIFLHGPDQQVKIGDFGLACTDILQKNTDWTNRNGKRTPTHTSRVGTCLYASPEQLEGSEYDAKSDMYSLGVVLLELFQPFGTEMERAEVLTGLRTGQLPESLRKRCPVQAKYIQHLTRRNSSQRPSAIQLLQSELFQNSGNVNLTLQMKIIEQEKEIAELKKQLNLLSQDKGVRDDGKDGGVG
Sequence of ACVR2B (Q13705 19-512): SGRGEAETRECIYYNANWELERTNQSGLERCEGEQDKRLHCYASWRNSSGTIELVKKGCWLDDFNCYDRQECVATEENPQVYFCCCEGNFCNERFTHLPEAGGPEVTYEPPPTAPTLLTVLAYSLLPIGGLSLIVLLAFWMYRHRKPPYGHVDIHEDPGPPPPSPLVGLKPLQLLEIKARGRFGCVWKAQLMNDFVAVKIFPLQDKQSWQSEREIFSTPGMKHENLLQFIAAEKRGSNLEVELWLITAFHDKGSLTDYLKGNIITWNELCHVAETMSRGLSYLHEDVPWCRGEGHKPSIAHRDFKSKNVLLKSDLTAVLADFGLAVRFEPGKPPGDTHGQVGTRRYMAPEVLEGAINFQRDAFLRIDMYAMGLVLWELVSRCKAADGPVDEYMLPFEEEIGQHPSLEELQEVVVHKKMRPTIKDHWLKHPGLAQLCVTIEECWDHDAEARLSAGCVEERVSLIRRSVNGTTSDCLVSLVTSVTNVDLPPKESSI
Sequence of ERBB4 (Q15303 26-1308): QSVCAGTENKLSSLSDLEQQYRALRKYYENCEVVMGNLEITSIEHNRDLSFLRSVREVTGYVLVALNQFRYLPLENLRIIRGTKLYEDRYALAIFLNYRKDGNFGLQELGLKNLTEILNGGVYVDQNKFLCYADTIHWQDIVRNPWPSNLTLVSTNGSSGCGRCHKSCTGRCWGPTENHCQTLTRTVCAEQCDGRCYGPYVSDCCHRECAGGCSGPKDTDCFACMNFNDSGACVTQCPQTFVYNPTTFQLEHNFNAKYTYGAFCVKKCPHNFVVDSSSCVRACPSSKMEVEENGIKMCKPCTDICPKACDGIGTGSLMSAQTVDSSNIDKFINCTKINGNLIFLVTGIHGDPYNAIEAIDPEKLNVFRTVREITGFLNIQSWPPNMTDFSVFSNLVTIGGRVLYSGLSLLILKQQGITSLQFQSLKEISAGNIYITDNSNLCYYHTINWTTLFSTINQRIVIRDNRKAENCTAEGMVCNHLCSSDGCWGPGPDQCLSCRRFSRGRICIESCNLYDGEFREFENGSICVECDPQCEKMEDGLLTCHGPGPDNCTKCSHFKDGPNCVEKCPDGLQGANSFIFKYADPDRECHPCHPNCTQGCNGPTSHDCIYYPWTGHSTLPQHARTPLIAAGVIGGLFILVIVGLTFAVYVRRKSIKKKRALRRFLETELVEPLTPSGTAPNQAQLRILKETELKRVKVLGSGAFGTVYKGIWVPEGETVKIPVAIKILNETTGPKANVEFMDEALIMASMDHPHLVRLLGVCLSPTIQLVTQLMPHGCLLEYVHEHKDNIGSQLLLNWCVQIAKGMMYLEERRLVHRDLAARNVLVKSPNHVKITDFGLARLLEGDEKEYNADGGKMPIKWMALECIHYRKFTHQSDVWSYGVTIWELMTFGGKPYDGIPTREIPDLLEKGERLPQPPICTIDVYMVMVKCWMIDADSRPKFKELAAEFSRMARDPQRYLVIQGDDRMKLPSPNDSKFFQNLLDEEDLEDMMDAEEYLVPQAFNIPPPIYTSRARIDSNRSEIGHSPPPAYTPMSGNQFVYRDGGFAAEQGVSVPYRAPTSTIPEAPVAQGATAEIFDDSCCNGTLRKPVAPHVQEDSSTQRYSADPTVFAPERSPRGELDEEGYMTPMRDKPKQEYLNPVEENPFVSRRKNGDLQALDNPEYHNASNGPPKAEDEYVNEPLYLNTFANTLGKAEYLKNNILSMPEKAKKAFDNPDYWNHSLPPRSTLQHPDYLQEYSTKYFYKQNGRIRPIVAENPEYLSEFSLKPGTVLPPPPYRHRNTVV
Sequence of RPS6KA5(Kin.Dom.1-N-terminal) (O75582 49-318): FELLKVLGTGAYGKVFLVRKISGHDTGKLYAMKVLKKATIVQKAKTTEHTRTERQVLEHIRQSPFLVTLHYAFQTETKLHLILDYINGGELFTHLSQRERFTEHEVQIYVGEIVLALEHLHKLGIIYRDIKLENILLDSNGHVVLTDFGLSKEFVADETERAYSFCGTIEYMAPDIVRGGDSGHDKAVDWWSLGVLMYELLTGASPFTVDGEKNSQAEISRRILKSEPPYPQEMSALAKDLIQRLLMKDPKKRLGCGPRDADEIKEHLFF
Sequence of GRK3 (P35626 whole entry): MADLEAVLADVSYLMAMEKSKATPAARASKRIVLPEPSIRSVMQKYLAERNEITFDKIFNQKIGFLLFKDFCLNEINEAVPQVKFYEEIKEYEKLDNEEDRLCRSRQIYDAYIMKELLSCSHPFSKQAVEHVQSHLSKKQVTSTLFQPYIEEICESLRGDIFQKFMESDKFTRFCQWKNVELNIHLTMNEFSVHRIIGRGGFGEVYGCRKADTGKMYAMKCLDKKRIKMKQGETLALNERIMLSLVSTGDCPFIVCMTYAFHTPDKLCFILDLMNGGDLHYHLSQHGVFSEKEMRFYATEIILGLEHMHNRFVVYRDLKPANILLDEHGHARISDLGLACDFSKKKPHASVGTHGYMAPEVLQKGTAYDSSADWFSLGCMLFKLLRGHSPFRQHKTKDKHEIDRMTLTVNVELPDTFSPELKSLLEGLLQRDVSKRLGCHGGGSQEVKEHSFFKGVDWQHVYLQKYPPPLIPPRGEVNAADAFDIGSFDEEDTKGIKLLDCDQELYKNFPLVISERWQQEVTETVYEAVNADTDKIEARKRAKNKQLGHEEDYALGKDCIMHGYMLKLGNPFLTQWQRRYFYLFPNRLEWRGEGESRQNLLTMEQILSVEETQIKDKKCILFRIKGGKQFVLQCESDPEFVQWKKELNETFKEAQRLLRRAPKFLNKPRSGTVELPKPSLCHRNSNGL

| Compound | remaining binding at 1 µM (p38-alpha) [%] | remaining binding at 1 µM (TXK) [%] | remaining binding at 1 µM (JNK2) [%] | remaining binding at 1 µM (PIM3) [%] | remaining binding at 1 µM (PRKD2) [%] | remaining binding at 1 µM (GRK3) [%] | remaining binding at 1 µM (PCTK2) [%] | remaining binding at 1 µM (ADCK4) [%] | remaining binding at 1 µM (FLT3(K663Q)) [%] | remaining binding at 1 µM (ERBB4) [%] | remaining binding at 1 µM (AKT2) [%] | remaining binding at 1 µM (CSF1R-autoinhibited) [%] | remaining binding at 1 µM (EIF2AK1) [%] | remaining binding at 1 µM (AKT3) [%] | remaining binding at 1 µM (PIM2) [%] | remaining binding at 1 µM (BRSK2) [%] | remaining binding at 1 µM (TAOK1) [%] | remaining binding at 1 µM (CSNK2A1) [%] | remaining binding at 1 µM (BRK) [%] | remaining binding at 1 µM (WEE2) [%] | other results |
| --- | --- | --- | --- | --- | --- | --- | --- | --- | --- | --- | --- | --- | --- | --- | --- | --- | --- | --- | --- | --- | --- |
| CCNc1cc(Nc2ccc(C(=O)N3CCC(N4CCOCC4)CC3)cc2OC)nc2[nH]cc(C#N)c12 [Example 18, 4-(ethylamino)-6-((2-methoxy-4-(4-morpholinopiperidine-1-carbonyl)phenyl)amino)-1H-pyrrolo[2,3-b]pyridine-3-carbonitrile] | 100 | 99 | 0.1 | 78 | 2 | 58 | 100 | 100 | 84 | 85 | 87 | 51 | 92 | 96 | 96 | 96 | 82 | 83 | 95 | 91 | remaining binding at 1 µM (EPHB6): 78%; remaining binding at 1 µM (FLT3(D835Y)): 82%; remaining binding at 1 µM (LTK): 6.2%; remaining binding at 1 µM (ACVR2B): 100%; remaining binding at 1 µM [1]: 100%; remaining binding at 1 µM (NIM1): 81%; remaining binding at 1 µM (TSSK1B): 34%; remaining binding at 1 µM (KIT(L576P)): 77%; remaining binding at 1 µM (TBK1): 76%; remaining binding at 1 µM (LZK): 100%; remaining binding at 1 µM (p38-delta): 99%; remaining binding at 1 µM (ERBB2): 99%; remaining binding at 1 µM (FGFR2): 85%; remaining binding at 1 µM (PRKCH): 95%; remaining binding at 1 µM [2]: 100%; remaining binding at 1 µM (FAK): 78%; remaining binding at 1 µM (RET): 100%; remaining binding at 1 µM (PKAC-alpha): 70%; remaining binding at 1 µM (MST1): 99% |
| CCNc1cc(Nc2ccc(C(=O)N3CCC(N4CCOCC4)CC3)cc2OC)nc2[nH]cc(C(F)(F)F)c12 [Example 57, (4-((4-(ethylamino)-3-(trifluoromethyl)-1H-pyrrolo[2,3-b]pyridin-6-yl)amino)-3-methoxyphenyl) (4-morpholinopiperidin-1-yl)methanone] | 83 | 85 | 52 | 78 | 83 | 100 | 98 | 75 | 94 | 82 | 90 | 83 | 99 | 96 | 98 | 79 | 100 | 100 | 94 | 96 | remaining binding at 1 µM (EPHB6): 99%; remaining binding at 1 µM (FLT3(D835Y)): 88%; remaining binding at 1 µM (LTK): 20%; remaining binding at 1 µM (ACVR2B): 98%; remaining binding at 1 µM [1]: 97%; remaining binding at 1 µM (NIM1): 100%; remaining binding at 1 µM (TSSK1B): 53%; remaining binding at 1 µM (KIT(L576P)): 100%; remaining binding at 1 µM (TBK1): 85%; remaining binding at 1 µM (LZK): 100%; remaining binding at 1 µM (p38-delta): 85%; remaining binding at 1 µM (ERBB2): 73%; remaining binding at 1 µM (FGFR2): 72%; remaining binding at 1 µM (PRKCH): 99%; remaining binding at 1 µM [2]: 100%; remaining binding at 1 µM (FAK): 77%; remaining binding at 1 µM (RET): 100%; remaining binding at 1 µM (PKAC-alpha): 100%; remaining binding at 1 µM (MST1): 76% |
